# Experimental data taken from US20200181104A1, “SSAO INHIBITORS AND USES THEREOF” (METACRINE, INC., priority 2018, published 2020).
# Structures can show the parent of a compound that is named as a salt.
# Biological target: T1, Recombinant Human SSAO/VAP-1/AOC3 (Homo sapiens, UniProt Q16853)
# T1 construct: purchased R&D systems 3957-AO
# T1 sequence (Q16853 1-763): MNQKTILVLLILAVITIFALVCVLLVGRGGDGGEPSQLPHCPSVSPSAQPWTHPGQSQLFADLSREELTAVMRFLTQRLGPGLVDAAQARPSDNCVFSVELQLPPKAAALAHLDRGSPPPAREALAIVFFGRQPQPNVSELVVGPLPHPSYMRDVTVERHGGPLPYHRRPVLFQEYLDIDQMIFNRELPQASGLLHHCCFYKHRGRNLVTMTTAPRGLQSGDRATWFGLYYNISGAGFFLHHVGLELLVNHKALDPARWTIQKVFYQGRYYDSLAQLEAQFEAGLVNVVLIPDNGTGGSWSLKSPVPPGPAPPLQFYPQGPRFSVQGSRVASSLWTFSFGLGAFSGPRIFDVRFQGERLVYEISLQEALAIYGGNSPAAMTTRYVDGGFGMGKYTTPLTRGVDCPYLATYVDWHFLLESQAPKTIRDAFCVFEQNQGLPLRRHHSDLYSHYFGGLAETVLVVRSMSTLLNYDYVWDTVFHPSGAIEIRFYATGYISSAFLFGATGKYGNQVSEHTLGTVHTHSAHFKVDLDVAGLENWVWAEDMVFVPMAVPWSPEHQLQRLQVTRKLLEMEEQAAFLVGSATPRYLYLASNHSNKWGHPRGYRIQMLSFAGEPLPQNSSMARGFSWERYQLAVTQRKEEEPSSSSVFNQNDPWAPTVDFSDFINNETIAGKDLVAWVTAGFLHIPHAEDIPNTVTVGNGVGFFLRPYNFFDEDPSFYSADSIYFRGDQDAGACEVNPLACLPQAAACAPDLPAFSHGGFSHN
# Test: Human Semicarbazide-Sensitive Amine Oxidase (SSAO) Assay
# Assay type: biochemical
# Details: recombinant enzyme, 30 minutes preincubation at 37° C., benzylamine substrate, Amplex Ultra Red/HRP fluorescence
# Outline: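 Recombinant human SSAO/VAP-1 (2.5 μg/ml working stock in 50 mM HEPES) preincubated with compound 30 min at 37 °C over a 6-10 point CRC. Benzylamine substrate starts the reaction. H2O2 read kinetically over 30-120 min via Amplex Ultra Red/HRP fluorescence (ex 544/em 590 nm) to derive IC50.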
row,IC50,SMILES
1,≤ 10 nM,"NC/C(=C\F)COc1ccc(C23CCC(C(=O)NCCC(=O)N4CCOCC4)(CC2)CC3)cc1 [Compound 2.68, (E)-4-(4-((2-(aminomethyl)-3-fluoroallyl)oxy)phenyl)-N-(3-morpholino-3-oxopropyl)bicyclo[2.2.2]octane-1-carboxamide]"
2,≤ 10 nM,"NC/C(=C\F)COc1ccc(C23CCC(C(=O)NC4(c5ccccc5)CCOCC4)(CC2)CC3)cc1 [Compound 2.69, (E)-4-(4-((2-(aminomethyl)-3-fluoroallyl)oxy)phenyl)-N-(4-phenyltetrahydro-2H-pyran-4-yl)bicyclo[2.2.2]octane-1-carboxamide]"
3,≤ 10 nM,"NC/C(=C\F)COc1ccc(C23CCC(C(=O)N4CC5CCC(C4)O5)(CC2)CC3)cc1 [Compound 2.71, (E)-(4-(4-((2-(aminomethyl)-3-fluoroallyl)oxy)phenyl)bicyclo [2.2.2]octan-1-yl)(8-oxa-3-azabicyclo[3.2.1]octan-3-yl)methanone]"
4,≤ 10 nM,"NC/C(=C\F)COc1ccc(C23CCC(C(=O)NC4(CO)CCOCC4)(CC2)CC3)cc1 [Compound 2.72, (E)-4-(4-((2-(aminomethyl)-3-fluoroallyl)oxy)phenyl)-N-(4-(hydroxymethyl)tetrahydro-2H-pyran-4-yl)bicyclo[2.2.2]octane-1-carboxamide]"
5,≤ 10 nM,"NC/C(=C\F)COc1ccc(C23CCC(C(=O)NC4(CO)CC4)(CC2)CC3)cc1 [Compound 2.73, (E)-4-(4-((2-(aminomethyl)-3-fluoroallyl)oxy)phenyl)-N-(1-(hydroxymethyl)cyclopropyl) bicyclo[2.2.2]octane-1-carboxamide]"
6,≤ 10 nM,"NC/C(=C\F)COc1ccc(C23CCC(C(=O)NCC(F)(F)CO)(CC2)CC3)cc1 [Compound 2.74, (E)-4-(4-((2-(aminomethyl)-3-fluoroallyl)oxy)phenyl)-N-(2,2-difluoro-3-hydroxypropyl)bicyclo[2.2.2] octane-1-carboxamide]"
7,≤ 10 nM,"NC/C(=C\F)COc1ccc(C23CCC(C(=O)NCCN4CCOCC4)(CC2)CC3)cc1 [Compound 2.75, (E)-4-(4-((2-(aminomethyl)-3-fluoroallyl)oxy)phenyl)-N-(2-morpholinoethyl)bicyclo[2.2.2] octane-1-carboxamide]"
8,≤ 10 nM,"NC/C(=C\F)COc1ccc(C23CCC(C(=O)Nc4ncco4)(CC2)CC3)cc1 [Compound 2.76, (E)-4-(4-((2-(aminomethyl)-3-fluoroallyl)oxy)phenyl)-N-(oxazol-2-yl)bicyclo[2.2.2]octane-1-carboxamide]"
9,≤ 10 nM,"CC(C)(CO)CNC(=O)C12CCC(c3ccc(OC/C(=C/F)CN)cc3)(CC1)CC2 [Compound 2.77, (E)-4-(4-((2-(aminomethyl)-3-fluoroallyl)oxy)phenyl)-N-(3-hydroxy-2,2-dimethylpropyl)bicyclo[2.2.2] octane-1-carboxamide]"
10,≤ 10 nM,"NC/C(=C\F)COc1ccc(C23CCC(C(=O)N4CC[C@@H]4CO)(CC2)CC3)cc1 [Compound 2.78, (R,E)-(4-(4-((2-(aminomethyl)-3-fluoroallyl)oxy)phenyl)bicyclo [2.2.2]octan-1-yl)(2-(hydroxymethyl)azetidin-1-yl)methanone]"
11,≤ 10 nM,"COCCN(C)C(=O)C12CCC(c3ccc(OC/C(=C/F)CN)cc3)(CC1)CC2 [Compound 2.79, (E)-4-(4-((2-(aminomethyl)-3-fluoroallyl)oxy)phenyl)-N-(2-methoxyethyl)-N-methylbicyclo[2.2.2]octane-1-carboxamide]"
12,≤ 10 nM,"NC/C(=C\F)COc1ccc(C23CCC(C(=O)NCc4ccccc4)(CC2)CC3)cc1 [Compound 2.80, (E)-4-(4-((2-(aminomethyl)-3-fluoroallyl)oxy)phenyl)-N-benzylbicyclo[2.2.2]octane-1-carboxamide]"
13,≤ 10 nM,"Cc1n[nH]c(C)c1CNC(=O)C12CCC(c3ccc(OC/C(=C/F)CN)cc3)(CC1)CC2 [Compound 2.81, (E)-4-(4-((2-(aminomethyl)-3-fluoroallyl)oxy)phenyl)-N-((3,5-dimethyl-1H-pyrazol-4-yl)methyl)bicyclo[2.2.2]octane-1-carboxamide]"
14,≤ 10 nM,"NC/C(=C\F)COc1ccc(C23CCC(C(=O)N4CC5(CCOCC5)C4)(CC2)CC3)cc1 [Compound 2.82, (E)-(4-(4-((2-(Aminomethyl)-3-fluoroallyl)oxy)phenyl)bicyclo[2.2.2]octan-1-yl)(7-oxa-2-azaspiro[3.5]nonan-2-yl)methanone Hydrochloride]"
15,≤ 10 nM,"COCCCNC(=O)C12CCC(c3ccc(OC/C(=C/F)CN)cc3)(CC1)CC2 [Compound 2.83, (E)-4-(4-((2-(aminomethyl)-3-fluoroallyl)oxy)phenyl)-N-(3-methoxypropyl)bicyclo[2.2.2] octane-1-carboxamide]"
16,≤ 10 nM,"NC/C(=C\F)COc1ccc(C23CCC(C(=O)NC4CC5CCC(C4)O5)(CC2)CC3)cc1 (centres unmarked) [Compound 2.84, (E)-4-(4-((2-(aminomethyl)-3-fluoroallyl)oxy)phenyl)-N-(8-oxabicyclo[3.2.1]octan-3-yl)bicyclo[2.2.2]octane-1-carboxamide]"
17,≤ 10 nM,"NC/C(=C\F)COc1ccc(C23CCC(C(=O)N4CCC(OCCO)CC4)(CC2)CC3)cc1 [Compound 2.85, (E)-(4-(4-((2-(aminomethyl)-3-fluoroallyl)oxy)phenyl)bicyclo [2.2.2]octan-1-yl)(4-(2-hydroxyethoxy)piperidin-1-yl)methanone]"
18,≤ 10 nM,"COCC1(NC(=O)C23CCC(c4ccc(OC/C(=C/F)CN)cc4)(CC2)CC3)CCOCC1 [Compound 2.86, (E)-4-(4-((2-(aminomethyl)-3-fluoroallyl)oxy)phenyl)-N-(4-(methoxymethyl)tetrahydro-2H-pyran-4-yl)bicyclo[2.2.2]octane-1-carboxamide]"
19,≤ 10 nM,"CC1(NC(=O)C23CCC(c4ccc(OC/C(=C/F)CN)cc4)(CC2)CC3)CCOC1 (centres unmarked) [Compound 2.87, (E)-4-(4-((2-(aminomethyl)-3-fluoroallyl)oxy)phenyl)-N-(3-methyltetrahydrofuran-3-yl)bicyclo[2.2.2]octane-1-carboxamide]"
20,≤ 10 nM,"CC(C)CNC(=O)C12CCC(c3ccc(OC/C(=C/F)CN)cc3)(CC1)CC2 [Compound 2.88, (E)-4-(4-((2-(aminomethyl)-3-fluoroallyl)oxy)phenyl)-N-isobutylbicyclo[2.2.2]octane-1-carboxamide]"
21,≤ 10 nM,"CC(C)(O)CCNC(=O)C12CCC(c3ccc(OC/C(=C/F)CN)cc3)(CC1)CC2 [Compound 2.89, (E)-4-(4-((2-(aminomethyl)-3-fluoroallyl)oxy)phenyl)-N-(3-hydroxy-3-methylbutyl)bicyclo[2.2.2] octane-1-carboxamide]"
22,≤ 10 nM,"COCCOC1CN(C(=O)C23CCC(c4ccc(OC/C(=C/F)CN)cc4)(CC2)CC3)C1 [Compound 2.90, (E)-(4-(4-((2-(aminomethyl)-3-fluoroallyl)oxy)phenyl)bicyclo [2.2.2]octan-1-yl)(3-(2-methoxyethoxy)azetidin-1-yl)methanone]"
23,≤ 10 nM,"COC1CC(NC(=O)C23CCC(c4ccc(OC/C(=C/F)CN)cc4)(CC2)CC3)C1 (centres unmarked) [Compound 2.91, 4-(4-(((E)-2-(aminomethyl)-3-fluoroallyl)oxy)phenyl)-N-((1r,3r)-3-methoxycyclobutyl)bicyclo [2.2.2]octane-1-carboxamide]"
